Source: patent US4447607A, “Dibenzo diazacines” (The Upjohn Company, priority 1982, dated 1984)

Legend:
[1] = tested on: thromboxane synthetase; details: prior art compounds, as noted in British patent specification; cited from earlier work
[2] = molecular target: T1, TXA2 synthetase (Homo sapiens, UniProt P24557); assay: TXA2 inhibition test: TXA2 generated from PGH2 with human platelet microsomes, response of superfused rabbit aortic strips; type: biochemical; details: rabbit aorta response
T1 construct: human platelet microsomes (HPM); from tissue; host or cells: human platelet microsomes
T1 sequence (P24557 1-533): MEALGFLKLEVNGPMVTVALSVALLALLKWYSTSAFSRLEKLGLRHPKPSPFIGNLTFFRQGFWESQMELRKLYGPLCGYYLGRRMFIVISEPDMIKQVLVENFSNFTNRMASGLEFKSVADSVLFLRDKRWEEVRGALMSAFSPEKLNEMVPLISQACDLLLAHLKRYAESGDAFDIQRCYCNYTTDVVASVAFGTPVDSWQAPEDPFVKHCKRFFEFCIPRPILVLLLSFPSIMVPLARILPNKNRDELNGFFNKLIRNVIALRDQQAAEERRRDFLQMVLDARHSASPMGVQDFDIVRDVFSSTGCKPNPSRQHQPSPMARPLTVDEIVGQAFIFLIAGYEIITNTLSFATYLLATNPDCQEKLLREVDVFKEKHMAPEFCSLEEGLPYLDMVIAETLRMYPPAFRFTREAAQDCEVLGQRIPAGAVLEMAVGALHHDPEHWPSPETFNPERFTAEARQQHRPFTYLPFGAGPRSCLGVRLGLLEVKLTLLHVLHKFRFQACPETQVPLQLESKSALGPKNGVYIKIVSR
Method: The compounds of the present invention were tested for TXA2 inhibition as follows:
Rabbit aortic strips were superfused in series with Krebs solution. Thromboxane A2 (TXA2) was generated by mixing prostaglandin H2 (PGH2) with human platelet microsomes (HPM).
Potential inhibitors were tested by comparing the response of the rabbit aorta to the amount of TXA2 produced by mixing PGH2 and HPM without the test compound in the reaction medium and then the amount of TXA2 produced when the test compound was added to the HPM 5 minutes before the HPM was mixed with PGH2. […] For a discussion of TXA2 synthetase inhibition testing see, e.g., R. Gorman, supra.

effectiveness in inhibiting TXA2 formation (in words) [2] | Compound | inhibitory activity on thromboxane synthetase (in words) [1]
 | CCCCCC=CC[C@@H](C=CC=CCC=CCCCC(=O)O)OO [12L-hydroperoxy-5,8,10,14-eicosatetraenoic acid] | very weak
most effective | c1cncc(-c2ccc3c(c2)CN2CN3Cc3cc(-c4cccnc4)ccc32)c1 [Example 1, 2,8-Di(3-pyridyl)-6H,12H-5,11-methanodibenzo[b,f][1,5]diazocine] | 
 | CC(Cc1ccc(O)c(O)c1)C(C)Cc1ccc(O)c(O)c1 (stereo not shown) [nordihydroguaiaretic acid] | very weak
 | sodium p-benzyl-4(1-oxo-2-(4-chlorobenzyl)-3-phenylpropyl)phenyl phosphate | very weak
